These results are taken from US11376252B2, “Multikinase inhibitors and uses in prostatic hyperplasia and urinary track diseases” (AIVIVA BIOPHARMA, INC., priority 2017, dated 2022).

“Also recorded” adds a separate entry of the source. Counter-ions that a name gives are not always drawn.

The subject of test [1] is testosterone (TE) and phenylephrine (PE) induced benign prostate hyperplasia in rats. As to the kind of experiment: Testosterone (TE) and phenylephrine (PE) induced benign prostate hyperplasia in rats, intra-prostate injection (Example 1). The format is in vivo, Male Wistar rats. The conditions noted are these: for glandular hyperplasia as compared to the untreated TE/PE induced prostates: TE/PE induced rats, intra-prostate injection, histology. How it is done:
BPH is a true hyperplastic process. Histologic studies have documented an increase in cell number. A study was conducted, therefore, to determine the effects of test compounds and vehicle on testosterone (TE) and phenylephrine (PE) induced benign prostate hyperplasia in rats. Male Wistar rats were induced with testosterone (2 mg/kg) plus phenylephrine (5 mg/kg) administered daily by subcutaneous injection on days 5 through 32. Vehicle or test compounds (all at 1% w/w), nintedanib, sunitinib, lenvatinib, and 0.5% doxazosin mesylate, were administered by intra-prostate injection (0.4 ml) in dorsolateral and ventral lobes on days 1 and 18. Animals were euthanized on day 32. Body weights were determined and prostate glands were harvested. The experimental design is outlined in Table 1.
At necropsy, the ventral and dorsolateral lobes of the prostate were separated and then cut into halves. The left halves were fixed in 10% neutral buffered formalin, sectioned, and stained with Hematoxylin and Eosin (H&E). Histological changes in these sections were scored. Epithelial hyperplasia was recognized as an increase in epithelial cells within normal-appearing gland profiles, primarily reflected by stratification of epithelial cells and increased presence of epithelial tufting and papillary projections. A severity grade of 0 (not present) through 5 (severe) was assigned to each sample.

Test [2] relates to suture induced fibrosis model in rabbits. Put plainly: Suture induced fibrosis model in rabbits (cornea), topical administration (Example 4). It counts as in vivo. The conditions noted are these: 0.3% w/w topical, three times daily for 10 days, Day 11; for fibroplasia and/or collagen density (histological staining, Masson's trichrome): FIG. 8. How it is done:
A study was conducted to determine the potential beneficial effects of topical administration of test compounds and vehicle in a suture induced fibrosis model in rabbits. Sutures were placed intrastromally, under a microscope, in the cornea of rabbits. In each eye, one 9-0 silk suture was placed, in a vertical position, temporal to the center of the cornea and a second suture was placed nasal to the corneal center. Each suture had two stromal incursions approximately 2 mm from the limbus. Test compounds having a certain spectrum of multikinase inhibition activities, or vehicle, were topically instilled (35 μL/eye) in the eyes three times daily for 10 days following surgery. The treatment groups include vehicle, nintedanib (0.3%, w/w), sorafenib (0.3%, w/w) and lenvatinib (0.3%, w/w). Six left eyes were used per treatment group.
During the in-life phase, gross ocular observations of very slight to moderate conjunctival congestion and swelling were similar among groups, including the vehicle control. The animals were sacrificed on Day 11 and eyes enucleated and dissected for histopathological evaluation.

Test [3] relates to laser induced choroidal neovascularization. Put plainly: Laser induced choroidal neovascularization in rat eyes (Example 5). The format is in vivo. The conditions noted are these: Day 22, FIG. 9; for lesion sizes relative to vehicle (fluorescein angiography): topical eyedrop 1%, three times a day Days 2-21. From the text: Increased expression of angiogenic factors, such as VEGF and bFGF, along with increased microvessel density, have been reported in benign prostatic hyperplasia, high grade prostate intraepithelial neoplasia and prostate cancer. […] In this example, the effect of local administration of multikinase inhibitors in a rat model of neovascularization was examined. New vessel growth is regulated by growth factor receptor signaling pathways, the functions of which broadly overlap among organs and tissues. In this study, effects of local administration of the multikinase inhibitors nintedanib and lenvatinib were examined by intravitreal injection or topical application to rat eyes following laser induced choroidal neovascularization. A 22-day study was conducted to determine the effects of test agents, positive control, or vehicle on the development of new vessels. On Day 1, laser treatments were performed on all animals using a 520 nm thermal laser to generate a total of three lesions per eye. On Days 2-21, bilateral topical administration of vehicle, 1% nintedanib, or 1% lenvatinib was performed three times a day. On Day 3, bilateral intravitreal injection of vehicle, 5 μg/eye of rat anti-VEGF antibody, 50 μg/eye of nintedanib, or 50 μg/eye of lenvatinib was performed in a second group of animals. On Day 22, fluorescein angiography was performed on all animals and lesion size/area was determined using image analysis software (ImageJ).

The subject of test [4] is testosterone and/or phenylephrine induced BPH in rats. As to the kind of experiment: Post-induction study in testosterone and/or phenylephrine induced BPH in rats, intra-prostate injection (Example 2). It counts as in vivo, Male Wistar rats. The conditions noted are these: for mean prostate weight/100 g body weight compared to vehicle: TE+PE induced days 1-28; for epithelial hyperplasia score (0 not present through 5 severe), representative image: dorsolateral prostate, FIG. 6. The procedure:
Morphologically, BPH is characterized by the formation of a new architecture through the proliferation of the epithelium in pre-existing ducts. Given that stromal cells serve important paracrine regulatory functions in epithelial cell homeostasis, late stage changes in stromal-epithelial interactions could provide insight into BPH progression. A second study was conducted to determine the therapeutic effects of test compounds and vehicle, post-induction in a protocol using testosterone and/or phenylephrine induced BPH in rats.
Male Wistar rats were induced with testosterone (2 mg/kg) plus phenylephrine (5 mg/kg) administered daily by subcutaneous injection on days 1 through 28. Vehicle or test compounds sorafenib (1% w/w), pirfenidone (2.5% w/w), and riociguat (1% w/w) were administered by intra-prostate injection (0.2 ml) in the dorsolateral lobe on days 15 and 29. Animals were euthanized on day 42. Body weights were determined. Prostate glands were harvested and weighed. The experimental design is outlined in Table 2.
At necropsy, the dorsolateral and ventral lobes of the prostate were separated and cut into halves. The left halves were fixed in 10% neutral buffered formalin, sectioned, and stained with Hematoxylin and Eosin (H&E). Epithelial hyperplasia was recognized as an increase in epithelial cells within normal appearing gland profiles, as reflected in the stratification of epithelial cells and increased presence of epithelial tufting and papillary projections. Stromal changes were examined microscopically. These changes included inflammation and tissue fibroplasia. Each section was given a severity score ranging from 0 (not present) through 5 (severe).

Where [5] appears, read: dorsolateral prostate, TE and PE induced, intra-prostate injection days 1 and 18, 1% w/w (doxazosin 0.5%), day 32, H&E, FIG. 1.
Where [6] appears, read: ventral prostate, TE and PE induced, intra-prostate injection days 1 and 18, 1% w/w (doxazosin 0.5%), day 32, H&E, FIG. 2.
[7] abbreviates: intravitreal injection 50 μg/eye on Day 3.
Where [8] appears, read: intra-prostate injection days 15 and 29, day 42, FIG. 5.
Setting [9] is: TE+PE induced, intra-prostate injection days 15 and 29, day 42.

`COc1cc2nc(N3CCN(C(=O)C4COc5ccccc5O4)CC3)nc(N)c2cc1OC` (stereo not drawn) [doxazosin, doxazosin mesylate]: in test [1], the “glandular hyperplasia as compared to the untreated TE/PE induced prostates” value was “demonstrated reduction of glandular hyperplasia”. Further, the “epithelial hyperplasia score (severity grade 0 not present through 5 severe), representative image” value in test [1] (setting [5]) and in test [1] (setting [6]) was 3 in each case.
`COc1cc2nccc(Oc3ccc(NC(=O)NC4CC4)c(Cl)c3)c2cc1C(N)=O` [lenvatinib]: in test [2], the “alpha SMA staining by immunohistochemical analysis relative to vehicle” value is on record as “significantly reduced alpha SMA staining” and the “fibroplasia and/or collagen density (histological staining, Masson's trichrome)” value was “significantly reduced fibroplasia and/or collagen density”. Also, the “lesion sizes relative to vehicle-treated eyes (fluorescein angiography)” value in test [3] (setting [7]) was “significantly reduced lesion sizes”. The “lesion sizes relative to positive control, rat anti-VEGF (fluorescein angiography)” value in test [3] (intravitreal injection 50 μg/eye on Day 3, anti-VEGF 5 μg/eye) is “significantly reduced lesion sizes”. Besides, the “lesion sizes relative to vehicle (fluorescein angiography)” value in test [3] is “reduced lesion sizes”. Also, in test [1], the “glandular hyperplasia as compared to the untreated TE/PE induced prostates” value is recorded as “demonstrated reduction of glandular hyperplasia”. Besides, the “epithelial hyperplasia score (severity grade 0 not present through 5 severe), representative image” value in test [1] (setting [5]) worked out at 2. In addition, in test [1] (setting [6]), the “epithelial hyperplasia score (severity grade 0 not present through 5 severe), representative image” value is recorded as 3.
On to `COC(=O)c1ccc2c(c1)NC(=O)/C2=C(\Nc1ccc(N(C)C(=O)CN2CCN(C)CC2)cc1)c1ccccc1` [nintedanib], for which the “alpha SMA staining by immunohistochemical analysis relative to vehicle” value in test [2] is on record as “significantly reduced alpha SMA staining”. Also, in test [2], the “fibroplasia and/or collagen density (histological staining, Masson's trichrome)” value is reported as “significantly reduced fibroplasia and/or collagen density”. For the same molecule, the “lesion sizes relative to vehicle-treated eyes (fluorescein angiography)” value in test [3] (setting [7]) is listed as “significantly reduced lesion sizes”. In test [3], the “lesion sizes relative to vehicle (fluorescein angiography)” value is “reduced lesion sizes”. Besides, the “glandular hyperplasia as compared to the untreated TE/PE induced prostates” value in test [1] was “demonstrated reduction of glandular hyperplasia”. Besides, the “epithelial hyperplasia score (severity grade 0 not present through 5 severe), representative image” value in test [1] (setting [5]) and in test [1] (setting [6]) was 3 throughout.
Turning to `Cc1ccc(=O)n(-c2ccccc2)c1` [pirfenidone], in test [4] (setting [8]), the “mean prostate weight/100 g body weight compared to vehicle” value is “did not show a reduction in mean prostate weight”. The “epithelial hyperplasia score (0 not present through 5 severe), representative image” value in test [4] (setting [9]) is reported as 1.
As for `COC(=O)N(C)c1c(N)nc(-c2nn(Cc3ccccc3F)c3ncccc23)nc1N` [riociguat], the “effect on prostate volume and histological changes in epithelial hyperplasia” value in test [4] (TE induced rats, 1% w/w intra-prostate) is “showed an effect on prostate volume and histological changes in epithelial hyperplasia”. Besides, the “mean prostate weight/100 g body weight compared to vehicle control” value in test [4] (TE induction days 1-28, intra-prostate injection days 15 and 29, day 42, FIG. 5) was “reduced the mean prostate weight”. Also, the “epithelial hyperplasia score (0 not present through 5 severe), representative image” value in test [4] (TE induced, intra-prostate injection days 15 and 29, day 42) stood at 1.
In the case of `CNC(=O)c1cc(Oc2ccc(NC(=O)Nc3ccc(Cl)c(C(F)(F)F)c3)cc2)ccn1` [sorafenib], in test [2], the “alpha SMA staining by immunohistochemical analysis relative to vehicle” value is “no effect on alpha SMA” and the “fibroplasia and/or collagen density (histological staining, Masson's trichrome)” value is listed as “little or no effect”. In test [4] (setting [8]), the “mean prostate weight/100 g body weight compared to vehicle” value was “did not show a reduction in mean prostate weight”. Further, in test [4] (TE+PE induced rats, 1% w/w intra-prostate), the “inhibition of benign prostate hyperplasia / therapeutic effect in the prostate” value was “not an effective inhibitor; also recorded: did not show any therapeutic effect”. For the same molecule, in test [4] (setting [9]), the “epithelial hyperplasia score (0 not present through 5 severe), representative image” value was determined as 2.
On to `CCN(CC)CCNC(=O)c1c(C)[nH]c(/C=C2\C(=O)Nc3ccc(F)cc32)c1C` [sunitinib], for which the “epithelial hyperplasia score (severity grade 0 not present through 5 severe), representative image” value in test [1] (768 h) and in test [1] (setting [5]) was 3 each time.
